Source: ChEMBL document CHEMBL5604063, “ASAP - DENV-2 NS2B-NS3 protease fluorescence dose response” (2024)
Several values for one entry are separate records, joined by “and”; a condition that tells them apart may be missing. Equal values may be shown once.

Columns and labels:
Genome polyprotein [1] = biological target: T1, Genome polyprotein (dengue virus type 2, UniProt P29990); assay type: functional, Thailand/16681/1984
Genome polyprotein [2] = biological target: T1, Genome polyprotein; assay type: functional, Thailand/16681/1984; remark: listed apart in the source

T1 sequence (P29990 1346-1475 limits assumed): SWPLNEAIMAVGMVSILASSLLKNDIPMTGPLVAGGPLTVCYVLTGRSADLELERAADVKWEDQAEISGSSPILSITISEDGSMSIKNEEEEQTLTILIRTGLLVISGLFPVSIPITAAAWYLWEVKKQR
T1 sequence (P29990 1476-2093 limits assumed): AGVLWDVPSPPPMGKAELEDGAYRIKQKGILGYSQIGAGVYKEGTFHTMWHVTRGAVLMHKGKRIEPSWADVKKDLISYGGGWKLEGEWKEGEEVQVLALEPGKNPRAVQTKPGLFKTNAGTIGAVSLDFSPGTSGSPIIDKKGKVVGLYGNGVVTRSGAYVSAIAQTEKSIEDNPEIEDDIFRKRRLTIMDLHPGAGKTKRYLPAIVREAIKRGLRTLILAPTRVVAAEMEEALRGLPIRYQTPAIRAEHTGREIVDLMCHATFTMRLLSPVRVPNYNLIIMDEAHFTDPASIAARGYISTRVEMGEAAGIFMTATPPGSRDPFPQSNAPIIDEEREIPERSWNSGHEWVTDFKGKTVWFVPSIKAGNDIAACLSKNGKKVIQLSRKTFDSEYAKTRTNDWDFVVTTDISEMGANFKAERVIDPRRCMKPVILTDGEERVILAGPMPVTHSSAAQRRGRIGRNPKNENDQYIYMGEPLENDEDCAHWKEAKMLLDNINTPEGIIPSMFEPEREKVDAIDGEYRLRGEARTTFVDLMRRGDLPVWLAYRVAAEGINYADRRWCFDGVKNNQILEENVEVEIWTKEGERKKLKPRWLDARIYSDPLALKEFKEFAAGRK

Row | Compound | IC50 (Genome polyprotein [1]) | IC50 (Genome polyprotein [2])
1 | CN(c1ccc2c(c1)CNC2)[C@H](C(=O)NCC(F)F)c1cc(Cl)cc(C2CC2)c1 | > 100 µM | > 99.5 µM
2 | Cc1ncc2c(n1)CCC[C@H]2NC(=O)c1cccc2c1CC(=O)N2 | > 100 µM | > 99.5 µM
3 | O=C1Cc2c(cccc2C(=O)N[C@H]2C[C@H](OC(F)F)C2)N1 | > 100 µM | > 99.5 µM
4 | O=C(Nc1ccc2c(c1)CNC2)c1cc(F)cc2[nH]c(-c3cnc(C4CC4)o3)nc12 | > 100 µM | > 49.7 µM
5 | O=C1Cc2c(cccc2C(=O)Nc2cc3c(cn2)OCCO3)N1 | > 100 µM | > 99.5 µM
6 | Cc1c(C(=O)Nc2cc(C(=O)N[C@H]3CNC(=O)C3)ccn2)cc(C2CC2)n1C | > 100 µM | > 99.5 µM
7 | COC1CN(C(=O)c2ccnc(NC(=O)c3cc(C4CC4)n(C)c3C)c2)C1 | > 100 µM | > 99.5 µM
8 | Cc1cc(C(=O)Nc2ccc3c(c2)CNC3)cc2nc[nH]c12 | > 100 µM | > 99.5 µM
9 | COCc1cc(Cl)cc([C@H](Nc2ccc3c(c2)CNC3)C(=O)NCC(F)F)c1 | > 100 µM | > 99.5 µM
10 | O=C(NCC(F)F)[C@H](Nc1ccc2c(c1)CNC2)c1cc(Cl)ccc1Cl | > 100 µM | > 99.5 µM
11 | C=CC[C@H]1c2ccc(NC(=O)c3cc(Br)cc4[nH]ccc34)cc2CN1C(=O)OC(C)(C)C | > 100 µM | > 99.5 µM
12 | COc1cccc(-c2nc3c(C(=O)Nc4ccc5c(c4)CNC5)cc(F)cc3[nH]2)c1 | > 100 µM | 8.12 µM and 5.22 µM
13 | CCNC(=O)c1ccnc(NC(=O)c2cc(C3CC3)n(C)c2C)c1 | > 100 µM | > 99.5 µM
14 | O=C1Cc2c(cccc2C(=O)N[C@H]2CCC[C@@H](C(=O)NC3CC3)C2)N1 | > 100 µM | > 99.5 µM
15 | O=C1Cc2c(cccc2C(=O)N[C@H]2COc3cc(Br)cnc32)N1 | > 100 µM | > 99.5 µM
16 | O=C(Nc1ccc2c(c1)CNC2)c1cc(F)cc2[nH]c(CC[C@H]3CCCOC3)nc12 | > 100 µM | 76.2 µM
17 | O=C(NCC(F)F)[C@H](Nc1ccc2c(c1)CNC2)c1cccc(Cl)c1 | > 100 µM | > 99.5 µM
18 | O=C1Cc2c(cccc2C(=O)Nc2ccn(C[C@H]3CCOC3)n2)N1 | > 100 µM | > 99.5 µM
19 | Cc1cc(N2CCC(NC(=O)c3cccc4c3CC(=O)N4)CC2)[nH]n1 | > 100 µM | > 99.5 µM
20 | O=C(Nc1cc(-c2cccnc2)ccn1)c1cc(C2CC2)on1 | > 100 µM | > 99.5 µM
21 | CCO[C@@H]1CC[C@H]1NC(=O)c1cccc2c1CC(=O)N2 | > 100 µM | > 99.5 µM
22 | O=C1Cc2c(cccc2C(=O)NC[C@H]2C[C@@H](n3cccn3)C2)N1 | > 100 µM | > 99.5 µM

Row | Compound | IC50 (Genome polyprotein [1]) | IC50 (Genome polyprotein [2])
23 | O=C1Cc2c(cccc2C(=O)N[C@H]2CCc3ncsc3C2)N1 | > 100 µM | > 99.5 µM
24 | Cc1nc(C2CC2)[nH]c1C(=O)Nc1cc(-c2cccnc2)ccn1 | > 100 µM | > 99.5 µM
25 | CN1C(=O)CC[C@H]1c1nc2c(C(=O)Nc3ccc4c(c3)CNC4)cc(F)cc2[nH]1 | > 100 µM | > 99.5 µM
26 | Cc1c(C(=O)Nc2cc(C(=O)N[C@H]3CCOC3)ccn2)cc(C2CC2)n1C | > 100 µM | > 99.5 µM
27 | O=C1Cc2c(cccc2C(=O)N[C@H]2CC[C@H](OC3CCCC3)CC2)N1 | > 100 µM | > 99.5 µM
28 | CCOCC1(c2nc3c(C(=O)Nc4ccc5c(c4)CNC5)cc(F)cc3[nH]2)CC1 | > 100 µM | > 99.5 µM
29 | NCc1cccc(-c2csc3cc(C(=O)Nc4ccc5c(c4)CNC5)ccc23)c1 | > 100 µM | 22.4 µM and 14.7 µM
30 | O=C(Nc1ccc2c(c1)CNC2)c1cc(F)cc2[nH]c(-c3cccc(F)c3)nc12 | 44.1 µM and 36 µM | 4.86 µM and 4.62 µM
31 | O=C1Cc2c(cccc2C(=O)N[C@H]2C[C@@H](c3ncc[nH]3)C2)N1 | > 100 µM | > 99.5 µM
32 | Cc1c(C(=O)Nc2cc(C(=O)N3CC[C@H]3CO)ccn2)cc(C2CC2)n1C | > 100 µM | > 99.5 µM
33 | Cc1nc(C2(NC(=O)c3cccc4c3CC(=O)N4)CCC2)no1 | > 100 µM | > 99.5 µM
34 | C[C@H]1C[C@H]1c1cc(C(=O)Nc2cc(-c3cccnc3)ccn2)no1 | > 100 µM | > 99.5 µM
35 | O=C1Cc2c(cccc2C(=O)NC2(c3ncccc3F)CC2)N1 | > 100 µM | > 99.5 µM
36 | O=C1Cc2c(cccc2C(=O)NC2CCN(c3nccs3)CC2)N1 | > 100 µM | > 99.5 µM
37 | Cc1c(C(=O)Nc2cc(C(=O)Nc3cccnc3)ccn2)cc(C2CC2)n1C | > 100 µM | > 99.5 µM
38 | O=C(NCC(F)F)[C@H](Nc1ccc2c(c1)CNC2)c1cccc2c1CCC2 | > 100 µM | > 99.5 µM
39 | Cc1[nH]c(-c2ccccc2)cc1C(=O)Nc1cc(-c2cccnc2)ccn1 | > 100 µM | > 99.5 µM
40 | O=C(NCC(F)F)[C@H](Nc1ccc2c(c1)CNC2)c1cc(Cl)cc(Cl)c1Cl | > 100 µM | > 99.5 µM
41 | CCc1cc2c(cc1NC(=O)c1cc(F)cc3[nH]ncc13)CNC2 | > 100 µM | > 99.5 µM
42 | CC1(NC(=O)c2cccc3c2CC(=O)N3)CCOCC1 | > 100 µM | > 99.5 µM
43 | O=C(Nc1ccc2c(c1)CNC2)c1ccc2c(C3=CCNCC3)csc2c1 | > 100 µM | 52.6 µM and 43.4 µM
44 | COc1ccc(Cl)cc1[C@H](Nc1ccc2c(c1)CNC2)C(=O)NCC(F)F | > 100 µM | > 99.5 µM

Row | Compound | IC50 (Genome polyprotein [1]) | IC50 (Genome polyprotein [2])
45 | O=C1Cc2c(cccc2C(=O)N[C@H]2CCC23CCOCC3)N1 | > 100 µM | > 99.5 µM
46 | O=C1Cc2c(cccc2C(=O)Nc2ccc(-c3cccnc3)cn2)N1 | > 100 µM | > 99.5 µM
47 | Cc1c(C(=O)Nc2cc(C(=O)N3CC[C@H](CO)C3)ccn2)cc(C2CC2)n1C | > 100 µM | > 99.5 µM
48 | COc1ccccc1Cn1cnc2cc(C(=O)Nc3ccc4c(c3)CNC4)ccc21 | > 100 µM | > 99.5 µM
49 | Cc1ccc(-c2nc3c(C(=O)Nc4ccc5c(c4)CNC5)cc(F)cc3[nH]2)cc1 | 70.2 µM | 16.4 µM and 39.9 µM
50 | CC(C)(O)c1cncc(NC(=O)c2cccc3c2CC(=O)N3)c1 | > 100 µM | > 99.5 µM
51 | Cc1c(C(=O)Nc2cc(C(=O)N3CC(CO)C3)ccn2)cc(C2CC2)n1C | > 100 µM | > 99.5 µM
52 | C[C@H](NC(=O)c1cccc2c1CC(=O)N2)c1cccc(S(C)(=O)=O)c1 | > 100 µM | > 99.5 µM
53 | O=C(NCC(F)F)[C@H](Nc1ccc2c(c1)CNC2)c1cc(Cl)cc2c1CCC2 | > 100 µM | > 99.5 µM
54 | COC(=O)N1CCc2cc(NC(=O)c3cc(C4CC4)n(C)c3C)ccc21 | > 100 µM | > 99.5 µM
55 | O=C(NCC(F)F)[C@H](Nc1ccc2c(c1)CNC2)c1cc(Cl)cc2ccoc12 | > 100 µM | > 99.5 µM
56 | O=C(Nc1ccc2c(c1)CNC2)c1cccc2c1[C@]1(CCN(C(=O)OCc3ccccc3)C1)C(=O)N2 | > 100 µM | > 99.5 µM
57 | CNC(=O)C[C@H]1CC[C@@H](NC(=O)c2cccc3c2CC(=O)N3)CC1 | > 100 µM | > 99.5 µM
58 | O=C1Cc2c(cccc2C(=O)N[C@H]2C[C@H](c3ccon3)C2)N1 | > 100 µM | > 99.5 µM
59 | O=C1Cc2c(cccc2C(=O)N[C@H]2CCSC3(CCOCC3)C2)N1 | > 100 µM | > 99.5 µM
60 | O=C1Cc2c(cccc2C(=O)NC2(c3ccc(O)nc3)CC2)N1 | > 100 µM | > 99.5 µM
61 | NC(=O)N1CCc2ccc(NC(=O)c3cccc4c3CC(=O)N4)cc21 | > 100 µM | > 99.5 µM
62 | Cc1[nH]nc2c1CC[C@H](NC(=O)c1cccc3c1CC(=O)N3)C2 | > 100 µM | > 99.5 µM
63 | COc1cc(C#N)cc([C@H](Nc2ccc3c(c2)CNC3)C(=O)NCC(F)F)c1 | > 100 µM | > 99.5 µM
64 | N#Cc1csc2cc(C(=O)Nc3ccc4c(c3)CNC4)ccc12 | > 100 µM | > 99.5 µM
65 | O=C(Nc1ccc2c(c1)CNC2)c1cc(F)cc(C2=CCOCC2)c1 | > 100 µM | > 49.7 µM
66 | Cc1c(NC(=O)c2cccc3c2CC(=O)N3)cnn1C1CCOCC1 | > 100 µM | > 99.5 µM

Row | Compound | IC50 (Genome polyprotein [1]) | IC50 (Genome polyprotein [2])
67 | C=CCNC(=O)C1(NC(=O)c2cccc3c2CC(=O)N3)CCCCC1 | > 100 µM | > 99.5 µM
68 | O=C1Cc2c(cccc2C(=O)N[C@H]2C[C@H](Cn3ccnc3)C2)N1 | > 100 µM | > 99.5 µM
69 | COc1ccc([C@@H]2C[C@H]2NC(=O)c2cccc3c2CC(=O)N3)cc1 | > 100 µM | > 99.5 µM
70 | Cc1c(C(=O)Nc2cc(C(=O)N3CCC(O)CC3)ccn2)cc(C2CC2)n1C | > 100 µM | > 99.5 µM
71 | Cc1c(C(=O)Nc2cc(C(=O)N3CCNC(=O)C3)ccn2)cc(C2CC2)n1C | > 100 µM | > 99.5 µM
72 | O=C1Cc2c(cccc2C(=O)N[C@H]2CC[C@@H](n3ccnn3)CC2)N1 | > 100 µM | > 99.5 µM
73 | COC(=O)c1cc2c(cc1NC(=O)c1cc(F)cc3[nH]ncc13)CNC2 | > 100 µM | > 99.5 µM
74 | Cc1c(C(=O)Nc2cc(C(N)=O)ccn2)cc(C2CC2)n1C | > 100 µM | > 99.5 µM
75 | O=C1Cc2c(cccc2C(=O)NC2CC3(CCOCC3)C2)N1 | > 100 µM | > 99.5 µM
76 | O=C(Nc1ccc2c(c1)CNC2)c1cc(F)cc2[nH]c(CCc3cccnc3)nc12 | > 100 µM | > 99.5 µM
77 | O=C1Cc2c(cccc2C(=O)N[C@H]2CCc3cnccc32)N1 | > 100 µM | > 99.5 µM
78 | C[C@H](NC(=O)c1cccc2c1CC(=O)N2)c1cc2cnccc2o1 | > 100 µM | > 99.5 µM
79 | C[C@H](NC(=O)c1cccc2c1CC(=O)N2)c1ccncc1F | > 100 µM | > 99.5 µM
80 | CCCn1ncc2c(C(=O)Nc3ccc4c(c3)CNC4)cc(Cl)cc21 | > 100 µM | > 99.5 µM
81 | Cn1nc(CNc2ccc3c(c2)CNC3)cc1C1CC1 | > 100 µM | > 99.5 µM
82 | O=C(Nc1ccc2c(c1)CNC2)c1cc(Cl)cc2c1cnn2C1CCC1 | > 100 µM | > 99.5 µM
83 | O=C1Cc2c(cccc2C(=O)NC[C@H]2CCCN(c3nccs3)C2)N1 | > 100 µM | > 99.5 µM
84 | O=C1Cc2c(cccc2C(=O)NCC2(F)CC3(CCOCC3)C2)N1 | > 100 µM | > 99.5 µM
85 | COc1ccc(-c2nc3c(C(=O)Nc4ccc5c(c4)CNC5)cc(F)cc3[nH]2)cc1 | > 100 µM | > 99.5 µM
